Here are results for 42 compounds from US8410157B2, “Fungicidal N-cycloalkyl-benzyl-thiocarboxamides or N-cycloalkyl-benzyl-N′-substituted-amidine derivatives” (Bayer Cropscience AG, priority 2007, dated 2013).

The nature of this series: LogP (Table 1). The class given is physicochemical.
`CCCC(c1ccc(Cl)cc1Cl)N(C(=S)c1c(C)nn(C)c1F)C1CC1` (racemic) [Compound 10] had a log partition coefficient (LogP) of 4.97.

As for `Cc1nn(C)c(F)c1C(=S)N(C1CC1)C(C)c1ccc(Cl)cc1Cl` (racemic) [Compound 15], the LogP is 4.14.

In turn, `Cc1nn(C)c(F)c1C(=S)N(C1CC1)C(C)c1cccc(OCc2ccccc2)c1` (racemic) [Compound 17] came in with a LogP of 4.36.

As to `Cc1nn(C)c(F)c1C(=S)N(C1CC1)C(C)c1cc(Cl)ccc1Cl` (racemic) [Compound 19], the LogP amounted to 4.04.

Consider `CC(c1cc(Cl)cc(Cl)c1)N(C(=S)c1cn(C)nc1Cl)C1CC1` (racemic) [Compound 49], for which the log partition coefficient (LogP) amounted to 4.49.

In turn, `CCCc1nn(C)cc1C(=S)N(C1CC1)C(C)c1ccc(Cl)cc1Cl` (racemic) [Compound 56] registered a log partition coefficient (LogP) of 4.39.

`Cc1nn(C)c(F)c1C(=S)N(Cc1ccc(Oc2ccc(Cl)cc2)cc1)C1CC1` [Compound 1] came in with a LogP of 4.59.

Consider `Cc1nn(C)c(F)c1C(=S)N(Cc1ccc(-c2ccc(F)c(Cl)c2)cc1F)C1CC1` [Compound 2], for which the LogP is reported as 4.73.

Take `Cc1nn(C)c(F)c1C(=S)N(Cc1cccc(C(F)(F)F)c1Cl)C1CC1` [Compound 3]: the LogP was 3.92.

For the compound `CCc1cccc(CC)c1CN(C(=S)c1c(C)nn(C)c1F)C1CC1` [Compound 4], the log partition coefficient (LogP) was 4.39.

As to `Cc1nn(C)c(F)c1C(=S)N(Cc1ccc(Oc2ccccc2)cc1)C1CC1` [Compound 5], the LogP came out at 4.06.

On to `Cc1nn(C)c(F)c1C(=S)N(Cc1c(Cl)cc(Cl)cc1Cl)C1CC1` [Compound 6], for which the lipophilicity (LogP) is listed as 4.42.

The compound `Cc1nn(C)c(F)c1C(=S)N(Cc1ccccc1[Si](C)(C)C)C1CC1` [Compound 7] registered a lipophilicity (LogP) of 4.64.

Compound `Cc1nn(C)c(F)c1C(=S)N(Cc1ccc(C(F)(F)F)cc1Cl)C1CC1` [Compound 8] registered a LogP of 4.14.

Regarding `Cc1nn(C)c(F)c1C(=S)N(Cc1cc(C(F)(F)F)ccc1Cl)C1CC1` [Compound 9], the LogP is 3.96.

Compound `Cc1nn(C)c(F)c1C(=S)N(Cc1ccccc1C1CCCCC1)C1CC1` [Compound 11] displayed a LogP of 5.17.

Compound `Cc1nn(C)c(F)c1C(=S)N(Cc1ccccc1I)C1CC1` [Compound 12] gave a LogP of 3.68.

The compound `Cc1nn(C)c(F)c1C(=S)N(Cc1c(Br)cc(Br)cc1Br)C1CC1` [Compound 13] showed a LogP of 4.86.

In the case of `Cc1nn(C)c(F)c1C(=S)N(Cc1ccccc1C(C)C)C1CC1` [Compound 14], the LogP is 3.89.

`Cc1ccc(C(F)(F)F)c(CN(C(=S)c2c(C)nn(C)c2F)C2CC2)c1` [Compound 16] showed a log partition coefficient (LogP) of 4.06.

`Cc1nn(C)c(F)c1C(=S)N(Cc1ccc(Oc2ccc(Cl)cc2Cl)cc1)C1CC1` [Compound 18] showed a log partition coefficient (LogP) of 5.

Consider `Cc1nn(C)c(F)c1C(=S)N(Cc1cc(Cl)ccc1Br)C1CC1` [Compound 22], for which the LogP stood at 3.99.

As for `CCc1nn(C)c(F)c1C(=S)N(Cc1ccc(C(F)(F)F)cc1Cl)C1CC1` [Compound 28], the lipophilicity (LogP) was 4.54.

The compound `Cn1cc(C(=S)N(Cc2ccccc2Br)C2CC2)c(C(F)F)n1` [Compound 31] displayed a log partition coefficient (LogP) of 3.46.

In turn, `Cc1ccc(C(F)(F)F)c(CN(C(=S)c2cn(C)nc2C(F)F)C2CC2)c1` [Compound 32] registered a LogP of 4.01.

In turn, `Cn1cc(C(=S)N(Cc2cccc(OCc3ccccc3)c2)C2CC2)c(C(F)F)n1` [Compound 33] returned a log partition coefficient (LogP) of 4.06.

Turning to `Cn1cc(C(=S)N(Cc2c(Cl)cccc2C(F)(F)F)C2CC2)c(C(F)F)n1` [Compound 34], the lipophilicity (LogP) is 3.71.

As for `Cn1cc(C(=S)N(Cc2ccc(C(F)(F)F)cc2Cl)C2CC2)c(C(F)F)n1` [Compound 35], the LogP came out at 4.09.

`Cn1cc(C(=S)N(Cc2cc(Cl)ccc2C(F)(F)F)C2CC2)c(C(F)F)n1` [Compound 36] returned a LogP of 4.01.

Compound `Cn1cc(C(=S)N(Cc2ccccc2[Si](C)(C)C)C2CC2)c(C(F)F)n1` [Compound 37] showed a LogP of 4.49.

In turn, `Cn1cc(C(=S)N(Cc2cc(Cl)ccc2Br)C2CC2)c(C(F)F)n1` [Compound 42] yielded a LogP of 3.89.

Turning to `Cn1cc(C(=S)N(Cc2cc3c(cc2Cl)OCO3)C2CC2)c(C(F)(F)F)c1` [Compound 44], the log partition coefficient (LogP) came to 4.01.

On to `Cn1cc(C(=S)N(Cc2c(Cl)cc(OC(F)(F)F)cc2Cl)C2CC2)c(C(F)(F)F)n1` [Compound 45], for which the LogP stood at 4.9.

The compound `Cn1nc(C(=S)N(Cc2c(Cl)cccc2C(F)(F)F)C2CC2)c(C(F)(F)F)n1` [Compound 46] returned a LogP of 4.67.

Compound `Cn1nc(C(=S)N(Cc2cc(Cl)ccc2C(F)(F)F)C2CC2)c(C(F)(F)F)n1` [Compound 47] showed a LogP of 4.94.

`Cn1nc(C(=S)N(Cc2ccc(Cl)cc2Cl)C2CC2)c(C(F)(F)F)n1` [Compound 48] registered a lipophilicity (LogP) of 4.95.

`Cn1cc(C(=S)N(Cc2c(Cl)cccc2C(F)(F)F)C2CC2)c(Cl)n1` [Compound 50] came in with a LogP of 3.83.

Turning to `Cn1cc(C(=S)N(Cc2ccccc2I)C2CC2)c(Cl)n1` [Compound 51], the LogP is reported as 3.73.

As to `Cn1cc(C(=S)N(Cc2c(Cl)cc(Cl)cc2Cl)C2CC2)c(Cl)n1` [Compound 52], the log partition coefficient (LogP) is 4.49.

`CCc1nn(C)cc1C(=S)N(Cc1ccccc1I)C1CC1` [Compound 53] had a LogP of 3.53.

As to `Cc1oc(C(C)(C)C)cc1C(=S)N(Cc1ccccc1I)C1CC1` [Compound 54], the LogP came to 5.95.

In turn, `Cn1cc(C(=S)N(Cc2c(Cl)cccc2Cl)C2CC2)c(I)n1` [Compound 55] registered a LogP of 3.71.
